Several values for one entry are separate records, joined by “and”; a condition that tells them apart may be missing. Equal values may be shown once.
Experiment: Human dosimetry estimation from small animal PET/MRI (imaging method)
Format: in vivo, CD-1 mice
Conditions: for OD Adrenals / OD Brain / OD Breasts / OD Gallbladder Wall / OD Heart Wall / OD Kidneys / OD LLI Wall / OD Liver / OD Lungs / OD Muscle / OD Osteogenic Cells / OD Ovaries / OD Pancreas / OD Red Marrow / OD Skin / OD Small Intestine / OD Spleen / OD Stomach Wall / OD Testes / OD Thymus / OD Thyroid / OD Total Body / OD ULI Wall / OD Urinary Bladder Wall / OD Uterus / ED Contr. Adrenals / ED Contr. Brain / ED Contr. Breasts / ED Contr. Gallbladder Wall / ED Contr. Heart Wall / ED Contr. Kidneys / ED Contr. LLI Wall / ED Contr. Liver / ED Contr. Lungs / ED Contr. Muscle / ED Contr. Osteogenic Cells / ED Contr. Ovaries / ED Contr. Pancreas / ED Contr. Red Marrow / ED Contr. Skin / ED Contr. Small Intestine / ED Contr. Spleen / ED Contr. Stomach Wall / ED Contr. Testes / ED Contr. Thymus / ED Contr. Thyroid / ED Contr. Total Body / ED Contr. ULI Wall / ED Contr. Urinary Bladder Wall / ED Contr. Uterus: mouse PET/MRI; for OD Adrenals / OD Brain / OD Breasts / OD Gallbladder Wall / OD Heart Wall / OD Kidneys / OD LLI Wall / OD Liver / OD Lungs / OD Muscle / OD Osteogenic Cells / OD Ovaries / OD Pancreas / OD Red Marrow / OD Skin / OD Small Intestine / OD Spleen / OD Stomach Wall / OD Testes / OD Thymus / OD Thyroid / OD Total Body / OD ULI Wall / OD Urinary Bladder Wall / OD Uterus: scaled to human adult male model; for ED Contr. Adrenals / ED Contr. Brain / ED Contr. Breasts / ED Contr. Gallbladder Wall / ED Contr. Heart Wall / ED Contr. Kidneys / ED Contr. LLI Wall / ED Contr. Liver / ED Contr. Lungs / ED Contr. Muscle / ED Contr. Osteogenic Cells / ED Contr. Ovaries / ED Contr. Pancreas / ED Contr. Red Marrow / ED Contr. Skin / ED Contr. Small Intestine / ED Contr. Spleen / ED Contr. Stomach Wall / ED Contr. Testes / ED Contr. Thymus / ED Contr. Thyroid / ED Contr. Total Body / ED Contr. ULI Wall / ED Contr. Urinary Bladder Wall / ED Contr. Uterus / ED: ICRP 103 weighting; for ED ICRP 60 / ED: mouse, imaging (PET/MRI); for ED ICRP 60: ICRP 60 weighting
Protocol: The animals were initially anesthetized with 4% of isoflurane and were positioned prone in a small-animal PET/MRI system (nanoScan® PET/MRI, MEDISO, Budapest, Hungary) equipped with respiratory monitoring, heated mouse bed (37 °C), and inhalation anesthesia (1.8% isoflurane in a 60% oxygen/40% air gas mixture at 250 mL/min airflow; Anaesthesia Unit U-410, agntho’s, Lidingö, Sweden; Gas blender 100 series, MCQ Instruments, Rome, Italy). Prior to the PET scan, a scout image MR sequence was done to outline the animal dimensions. Female CD-1 mice (age: 12 weeks, weight: 30.9 ± 1.3 g) were injected via the tail vein with (S)-(−)-[^18F]fluspidine (13.2 ± 3.0 MBq; n = 3) or (R)-(+)-[^18F]fluspidine (12.6 ± 1.4 MBq; n = 3) in a volume of 200 μL saline. The injected dose was calculated by the difference of the radioactivity in the syringe before and after the injection. A dynamic whole body animal PET scan of 105 min length (Figure 1) was started simultaneously. This scanning time was chosen to represent the protocol of the human study (after time extrapolation according to Equation (2)) based on a priori biokinetic information from the ex vivo investigation. Following the PET scan, a 20 min T1-weighted whole body MR scan (gradient echo sequence, TR = 20 ms; TE = 3.2 ms) was performed for anatomical orientation after co-registration and attenuation correction at the reconstruction step.
The PET images were iteratively (ordered-subsets expectation maximization, OSEM) reconstructed (preclinical: 4 iterations, 6 subsets; clinical: 4 iterations, 8 subsets) and corrected for decay, randoms, scatter, and dead time, μ-maps for attenuation correction of PET-emission data were derived from the CT or MR [49] structural data, respectively. The PET data were re-binned into 10 time frames (preclinical: 4 × 5 min, 1 × 10 min, and 5 × 15 min; clinical: 4 × 12 min, 3 × 16 min, 1 × 32 min, 1 × 40 min, and 1 × 48 min), and the reconstructed PET/MRI and PET/CT images were co-registered manually with ROVER (ABX, advanced chemical compounds, Radeberg, Germany, version 2.1.17). Quantitative evaluation was performed by drawing volumes of interest (VOI) for brain, gallbladder, large intestine, small intestine, stomach, heart, kidneys, liver, lungs, pancreas, red marrow (backbone, pelvis, sternum), spleen, thyroid, testes, and urinary bladder (Figure S4). The PET derived biokinetic data is expressed as percentage of injected activity (dose) per cubic centimeter (%ID/cm^3).
For human dosimetry estimation from animal biodistribution and PET/MR imaging, animal organ masses and time scale was extrapolated to human magnitudes. At first, the organ-specific animal %ID data were extrapolated to the human scale with the equation (1) %ID/organhuman=%ID/gmouse · morganhuman · mmouse/mhuman with the fraction of the injected activity in the corresponding human organ = %ID/organhuman , the fraction of injected activity per gram animal organ tissue = %ID/gmouse and morganhuman the mass of the corresponding human organ. At second, a time scale extrapolation is needed due to differences in the metabolic rate using the equation (2) thuman=tmouse{mhuman/mmouse}^0.25 including the human time scale = thuman , the animal time scale = tmouse and the ratio of animal and human body weights = mmouse/mhuman .
The human dosimetry estimation was performed with the data extrapolated as well as the genuine human data using OLINDA/EXM software. The time-activity curves were estimated by exponential fitting and calculating the time integral, which equals the number of disintegrations (NODs) per organ during the observation period normalized to 1 Becquerel administered activity dose. […] Therefore, activity data of the urinary bladder was derived from the image for each time point. In contrast, for humans the activity concentration data of the urinary bladder was obtained in a more direct approach. […]

## [18F]CC[C@H]1OC2(CCN(Cc3ccccc3)CC2)c2ccccc21 [(R)-(+)-[^18F]fluspidine]
mice, scaled to human
  OD values of (R)-(+)-enantiomer relative to (S)-(−)-enantiomer: up to 1.3 fold
  OD Adrenals: 11.00 μSv/MBq
  OD Brain: 13.20 μSv/MBq
  OD Breasts: 6.19 μSv/MBq
  OD Gallbladder Wall: 30.10 μSv/MBq
  OD Heart Wall: 10.50 μSv/MBq
  OD Kidneys: 26.90 μSv/MBq
  OD LLI Wall: 13.80 μSv/MBq
  OD Liver: 26.10 μSv/MBq
  OD Lungs: 10.80 μSv/MBq
  OD Muscle: 7.86 μSv/MBq
  OD Osteogenic Cells: 14.00 μSv/MBq
  OD Ovaries: 11.90 μSv/MBq
  OD Pancreas: 24.80 μSv/MBq
  OD Red Marrow: 12.80 μSv/MBq
  OD Skin: 5.82 μSv/MBq
  OD Small Intestine: 22.60 μSv/MBq
  OD Spleen: 31.80 μSv/MBq
  OD Stomach Wall: 12.70 μSv/MBq
  OD Testes: 7.63 μSv/MBq
  OD Thymus: 7.52 μSv/MBq
  OD Thyroid: 10.10 μSv/MBq
  OD Total Body: 9.13 μSv/MBq
  OD ULI Wall: 25.60 μSv/MBq
  OD Urinary Bladder Wall: 55.70 μSv/MBq
  OD Uterus: 13.00 μSv/MBq
Scaled to human
  ED Contr. Adrenals: 0.09 μSv/MBq
  ED Contr. Brain: 0.13 μSv/MBq
  ED Contr. Breasts: 0.74 μSv/MBq
  ED Contr. Gallbladder Wall: 0.26 μSv/MBq
  ED Contr. Heart Wall: 0.09 μSv/MBq
  ED Contr. Kidneys: 0.23 μSv/MBq
  ED Contr. LLI Wall: 0.83 μSv/MBq
  ED Contr. Liver: 1.04 μSv/MBq
  ED Contr. Lungs: 1.30 μSv/MBq
  ED Contr. Muscle: 0.07 μSv/MBq
  ED Contr. Osteogenic Cells: 0.14 μSv/MBq
  ED Contr. Ovaries: 0.95 μSv/MBq
  ED Contr. Pancreas: 0.21 μSv/MBq
  ED Contr. Red Marrow: 1.53 μSv/MBq
  ED Contr. Skin: 0.06 μSv/MBq
  ED Contr. Small Intestine: 0.20 μSv/MBq
  ED Contr. Spleen: 0.27 μSv/MBq
  ED Contr. Stomach Wall: 1.52 μSv/MBq
  ED Contr. Testes: 0.00 μSv/MBq
  ED Contr. Thymus: 0.06 μSv/MBq
  ED Contr. Thyroid: 0.41 μSv/MBq
  ED Contr. Total Body: 0.00 μSv/MBq
  ED Contr. ULI Wall: 1.54 μSv/MBq
  ED Contr. Urinary Bladder Wall: 2.23 μSv/MBq
  ED Contr. Uterus: 0.11 μSv/MBq
  ED ICRP 60: 15.2 μSv/MBq
  ED: 14.0 μSv/MBq
Scaled to human, listed as (R)-(+)-[^18F]Fluspidine
  ED: 14.0 μSv/MBq

## FCC[C@@H]1OC2(CCN(Cc3ccccc3)CC2)c2ccccc21 [(S)-(−)-[^18F]fluspidine]
  OD Adrenals: 10.50 μSv/MBq
  OD Brain: 10.10 μSv/MBq
  OD Breasts: 5.93 μSv/MBq
  OD Gallbladder Wall: 25.60 μSv/MBq
  OD Heart Wall: 9.85 μSv/MBq
  OD Kidneys: 37.60 μSv/MBq
  OD LLI Wall: 14.00 μSv/MBq
  OD Liver: 25.00 μSv/MBq
  OD Lungs: 10.40 μSv/MBq
  OD Muscle: 7.57 μSv/MBq
  OD Osteogenic Cells: 12.70 μSv/MBq
  OD Ovaries: 11.50 μSv/MBq
  OD Pancreas: 10.90 μSv/MBq
  OD Red Marrow: 10.80 μSv/MBq
  OD Skin: 5.61 μSv/MBq
  OD Small Intestine: 23.10 μSv/MBq
  OD Spleen: 26.10 μSv/MBq
  OD Stomach Wall: 10.50 μSv/MBq
  OD Testes: 7.46 μSv/MBq
  OD Thymus: 7.19 μSv/MBq
  OD Thyroid: 7.61 μSv/MBq
  OD Total Body: 8.68 μSv/MBq
  OD ULI Wall: 20.50 μSv/MBq
  OD Urinary Bladder Wall: 58.00 μSv/MBq
  OD Uterus: 12.80 μSv/MBq
Scaled to human
  ED Contr. Adrenals: 0.09 μSv/MBq
  ED Contr. Brain: 0.10 μSv/MBq
  ED Contr. Breasts: 0.71 μSv/MBq
  ED Contr. Gallbladder Wall: 0.22 μSv/MBq
  ED Contr. Heart Wall: 0.08 μSv/MBq
  ED Contr. Kidneys: 0.32 μSv/MBq
  ED Contr. LLI Wall: 0.84 μSv/MBq
  ED Contr. Liver: 1.00 μSv/MBq
  ED Contr. Lungs: 1.25 μSv/MBq
  ED Contr. Muscle: 0.07 μSv/MBq
  ED Contr. Osteogenic Cells: 0.13 μSv/MBq
  ED Contr. Ovaries: 0.92 μSv/MBq
  ED Contr. Pancreas: 0.09 μSv/MBq
  ED Contr. Red Marrow: 1.30 μSv/MBq
  ED Contr. Skin: 0.06 μSv/MBq
  ED Contr. Small Intestine: 0.20 μSv/MBq
  ED Contr. Spleen: 0.22 μSv/MBq
  ED Contr. Stomach Wall: 1.26 μSv/MBq
  ED Contr. Testes: 0.00 μSv/MBq
  ED Contr. Thymus: 0.06 μSv/MBq
  ED Contr. Thyroid: 0.30 μSv/MBq
  ED Contr. Total Body: 0.00 μSv/MBq
  ED Contr. ULI Wall: 1.23 μSv/MBq
  ED Contr. Urinary Bladder Wall: 2.32 μSv/MBq
  ED Contr. Uterus: 0.11 μSv/MBq
  ED ICRP 60: 14.8 μSv/MBq
  ED: 12.9 ± 0.4 μSv/MBq and 12.9 μSv/MBq
Scaled to human, listed as (S)-(−)-[^18F]Fluspidine
  ED: 12.9 μSv/MBq

Source: paper PMC6273209, “Evaluation of the Enantiomer Specific Biokinetics and Radiation Doses of [^18F]Fluspidine—A New Tracer in Clinical Translation for Imaging of σ1 Receptors” (Molecules, 2016)
